Reference: paper PMC11288129, “Diversely evolved xibalbin variants from remipede venom inhibit potassium channels and activate PKA-II and Erk1/2 signaling” (BMC Biology, 2024)
Entries after “also recorded” stand apart in the source; their conditions may differ. Positions of bridges follow the written chain, without caps; N, C: chain ends. No end group written: not given here.

Assays:
rNav1.4 = assay: TEVC current-voltage relationship (Vhalf), Nav1.4; type: cell-based, rat; design: Vhalf, toxin inactivation, Nav1.4 / Vhalf, toxin activation, Nav1.4: unit not given here; settings: for Vhalf, toxin activation, Nav1.4 / Vhalf, toxin inactivation, Nav1.4: 1 µM
From the text: (§1) For the expression of Kv channels rat Kv1.1 (GenBank accession number: NM_173095 [88, 89]), rKv1.2 (NM_012970 [90, 91]), human Kv1.3 (NM_002232 [92, 93]), rKv1.4 (NM_012971 [94, 95]), rKv1.6 (NM_023954 [96, 97]), hKv2.1 (NM_004975 [98, 99]), hKv3.1 (NM_004976 [100, 101]), rKv4.2 (NM_031739 [102, 103]), hKv10.1 (NM_172362 [104, 105]), hERG1 [Kv11.1, (NM_000238 [106, 107])], and Shaker IR [from Drosophila melanogaster, (NM_167595 [108, 109])], Nav channels [rNav1.2 (NM_012647 [42, 110]), rNav1.4 (NM_013178 [111, 112]), hNav1.5 (NM_198056 [113, 114]), mNav1.6 (NM_001077499 [115, 116]), BgNav [from Blattella germanica, (DQ466887 [117, 118])] and the auxiliary subunits rβ1 (NM_001271045 [119, 120]), hβ1 (NM_001037 [121, 122]), and TipE [from D. melanogaster, (NM_079196 [109, 123])], and Cav channels hCav3.1 [124, 125], hCav3.2 [126, 127], and hCav3.3 [128, 129] in Xenopus oocytes, the linearized plasmids were transcribed using the T7 or SP6 mMESSAGEmMACHINE transcription kit (Ambion, Austin, TX, USA). Mature female animals were purchased from Nasco (Fort Atkinson, USA) and were housed in the Aquatic Facility (KU Leuven) in compliance with the regulations of the European Union (EU) concerning the welfare of laboratory animals as declared in Directive 2010/63/EU. The use of X. laevis oocytes was approved by the Animal Ethics Committee of the KU Leuven with the license number P186/2019. Stage V–VI oocytes were collected from anesthetized female X. laevis frog as previously described, with the frogs anesthetized by placement in 0.1% tricaine solution (amino benzoic acid ethyl ester; Merck, USA). Oocyte microinjection was performed using a microinjector (Drummond Scientifc®, USA), with a programmed cRNA injection volume of 4—50 nL, depending on the channel subtype. The oocytes were incubated in ND96 solution (96 mM NaCl, 2 mM KCl, 1.8 mM CaCl2, 2 mM MgCl2, and 5 mM HEPES, pH 7.4), supplemented with 50 mg/l gentamicin sulfate.
(§2) Electrophysiological measurements were performed at room temperature (18–22 °C) using the two-electrode voltage clamp (TEVC) technique. Data were obtained using a GeneClamp 500 amplifier (Axon Instruments, USA), and Clampex9 software (Axon Instruments), responsible for data acquisition and storage. Glass micropipettes were produced using glass capillaries (borosilicate WPI 1B120-6) and drawn in a WPI (World Precision Instruments, USA) manual stretcher. The bath and perfusion solutions were either the previously described ND96 (Nav and Kv channels) or calcium-free ND96 supplemented with 10 mM BaCl2 (Cav channels).
(§3) Whole-cell currents of oocytes were recorded 1 to 3 days after injection. Current and voltage electrodes were filled with 3 M KCl and their resistance was adjusted from 0.7 to 2.0 MΩ. Currents were sampled at 20 kHz (Nav channels) and 10 kHz (Kv and Cav channels) and filtered using a four-pole Bessel low-pass Bessel filter, at 1 kHz for sodium, and […] for potassium and calcium, except for the hERG ion channel, in which the currents were filtered at 1 kHz. Leak subtraction was performed using a -P/4 protocol. Kv1.x currents were evoked by 500 ms depolarizations to 0 mV followed by a 500-ms pulse to − 50 mV, from a holding potential of − 90 mV. Kv2.1, Kv3.1, and Kv4.2 currents were elicited by 500 ms pulses to + 20 mV from a holding potential of − 90 mV. Current traces of Kv10.1 were elicited by 2 s depolarization to 0 mV, from a holding potential of − 90 mV. Current traces of hERG1 channel were elicited by applying a + 40 mV prepulse for 2 s followed by a step of − 120 mV for 2 s. Sodium current traces were evoked by a 100 ms depolarization to 0 mV, from a holding potential of − 90 mV. The current–voltage (IV) relationships were determined by 100-ms step depolarizations between − 90 and + 40 mV, using 5 mV increments. […]

[1] = tested on: voltage-gated potassium channels (Kvs); assay: TEVC on panel of voltage-gated potassium channels; type: cell-based; settings: 1 µM
From the text: (§4) For the expression of Kv channels rat Kv1.1 (GenBank accession number: NM_173095 [88, 89]), rKv1.2 (NM_012970 [90, 91]), human Kv1.3 (NM_002232 [92, 93]), rKv1.4 (NM_012971 [94, 95]), rKv1.6 (NM_023954 [96, 97]), hKv2.1 (NM_004975 [98, 99]), hKv3.1 (NM_004976 [100, 101]), rKv4.2 (NM_031739 [102, 103]), hKv10.1 (NM_172362 [104, 105]), hERG1 [Kv11.1, (NM_000238 [106, 107])], and Shaker IR [from Drosophila melanogaster, (NM_167595 [108, 109])], Nav channels [rNav1.2 (NM_012647 [42, 110]), rNav1.4 (NM_013178 [111, 112]), hNav1.5 (NM_198056 [113, 114]), mNav1.6 (NM_001077499 [115, 116]), BgNav [from Blattella germanica, (DQ466887 [117, 118])] and the auxiliary subunits rβ1 (NM_001271045 [119, 120]), hβ1 (NM_001037 [121, 122]), and TipE [from D. melanogaster, (NM_079196 [109, 123])], and Cav channels hCav3.1 [124, 125], hCav3.2 [126, 127], and hCav3.3 [128, 129] in Xenopus oocytes, the linearized plasmids were transcribed using the T7 or SP6 mMESSAGEmMACHINE transcription kit (Ambion, Austin, TX, USA). […]
(§5) Whole-cell currents of oocytes were recorded 1 to 3 days after injection. […] The current–voltage (IV) relationships were determined by 100-ms step depolarizations between − 90 and + 40 mV, using 5 mV increments. […]

hNav1.5 = assay: TEVC inhibition, Nav1.5; type: cell-based, human; settings: 1 µM, Xenopus oocytes, ND96, 18–22 °C, mean ± SEM, n ≥ 3
From the text: as §4, §5

hCav3.1 = assay: TEVC inhibition, Cav3.1; type: cell-based, human; design: unit not given here; settings: 1 µM
From the text: as §1, §2, §3

hCav3.3 = assay: TEVC inhibition, Cav3.3; type: cell-based, human; design: unit not given here; settings: 1 µM
From the text: as §1, §2, §3

Row | Sequence | Vhalf activation shift, Nav1.4 (rNav1.4; 1 µM versus control (ND96)) [mV] | Vhalf, toxin activation, Nav1.4 (rNav1.4; replicate 1) | Vhalf, toxin inactivation, Nav1.4 (rNav1.4; replicate 1) | Vhalf, toxin activation, Nav1.4 (rNav1.4; replicate 2) | Vhalf, toxin inactivation, Nav1.4 (rNav1.4; replicate 2) | Vhalf, toxin activation, Nav1.4 (rNav1.4; replicate 3) | Vhalf, toxin inactivation, Nav1.4 (rNav1.4; replicate 3) | inhibition of voltage-gated potassium channels [1] | inhibition of Nav1.5 (hNav1.5) [%] | Inhibition data, Cav3.1 (hCav3.1; replicate 1) | Inhibition data, Cav3.1 (hCav3.1; replicate 2) | Inhibition data, Cav3.1 (hCav3.1; replicate 3) | Inhibition data, Cav3.1 (hCav3.1; replicate 4) | Inhibition data, Cav3.3 (hCav3.3; replicate 1) | Inhibition data, Cav3.3 (hCav3.3; replicate 2) | Inhibition data, Cav3.3 (hCav3.3; replicate 3) | Inhibition data, Cav3.3 (hCav3.3; replicate 4)
1 | KRSCIRRFGRCDHRPNDCCYNSSCRCNLWGSNCRCQRMGLFQKWGK (disulfide 4-19, 11-24, 18-35, 26-33) [xib13] | 3.4 | -16.1478 | -45.0612 | -15.8394 | -52.747 | -14.4257 | -47.6866 | potent inhibition; also recorded: most significant inhibition rates | 28.2 ± 3.4 | 0.0 | 0.0 | 0.0 | 0.0 | 0.0 | 0.0 | 0.0 | 0.0
2 | RLFCIRHHKYCGHRPKRCCSGLFCRCNTFGTNCRCQSKGALGKLI (disulfide 4-19, 11-24, 18-35, 26-33) [xib1] | – | -19.1826 | -47.3987 | -12.5775 | -44.7262 | -17.1419 | -46.0496 | potent inhibition | 26.1 ± 1.8 | 0.0 | 0.0 | 0.0 | 0.0 | 0.0 | 0.0 | 0.0 | 0.0
